In PubChem BioAssay AID1919013 (Molecular Pharmacology Branch, DTP, NCI, 2023):
pIC50: −log10 of the molar value. Several values for one entry are separate records, joined by “and”; a condition that tells them apart may be missing. Equal entries are not always repeated. One block for each molecule: values may come before it.

Test system: LG0703-F498-PDC complex spheroid growth
Experiment: Anticancer human tumor LG0703-F498-PDC patient-derived lung adenocarcinoma cell line growth inhibition [AhR]
Settings: for viability, T/C: stronger effect = lower value
Excerpt: Multicellular complex tumor spheroid response to aryl hydrocarbon receptor antagonists in combination with a variety of drugs and investigational agents in selected tumor cell lines
The current study was undertaken to assess response to aryl hydrocarbon receptor antagonists in combination with standard-of-care drugs and investigational agents in solid tumor complex spheroid models. Complex spheroids include a stromal component modeled by human endothelial cells (HUVEC) and fibroblasts modeled by human mesenchymal stem cells (MSCs). The concentration ranges selected for each drug and investigational agent were based upon clinically achievable concentrations if the clinical Cmax of the agent was known.
Compounds. The drugs and investigational agents: BAY 2416964 (NSC825713), GNF351 (NSC835774), CH-223191 (NSC835775), CPI-455 (NSC825282), aza-TdCyd (NSC777586), decitabine (NSC127716), belinostat (NSC758774), entinostat (NSC756642), pevonedistat (NSC761192), tazemetostat (NSC777109), talazoparib (NSC765396), olaparib (NSC753686), selinexor (NSC780203), nedisertib (M3814, NSC802822), bortezomib (NSC756655), venetoclax (NSC766270), doxorubicin (NSC123127), elimusertib (BAY189344, NSC800525), ceralasertib (AZD6738, NSC777638), TAK-243 (NSC785004), alisertib (NSC759677), etoposide (NSC141540), topotecan (NSC609699), eribulin (NSC707389), gemcitabine (NSC613327), carboplatin (NSC241240), cisplatin (NSC119875), and SN-38 (NSC673596) were obtained from the National Cancer Institute (NCI) Developmental Therapeutics Program Chemical Repository (32). The FDA-approved anticancer drug set is available from the Developmental Therapeutics Program at https://dtp.cancer.gov/organization/dscb/obtaining/available plates.htm. […] The stock solutions were prepared in dimethyl sulfoxide (DMSO, Sigma-Aldrich, St. Louis, MO, cat. D2650), except for the platinum compounds which were prepared in saline (Quality Biological, Gaithersburg, MD, cat. 114-055-101), at 800-fold the tested concentration and stored at -70 degrees C prior to their use. All drugs and investigational agents were tested over a range starting from a high concentration at or near the clinical Cmax and decreasing in half-log increments. If the clinical Cmax for an agent had not been determined, the highest concentration tested was 10 microM (Table 1).
Cell Culture. All cells were maintained in an incubator at 37 degrees C and 5% CO2 with 95% humidity. The PDC lines were cultured according to standard operating procedures established by the NCI PDMR (https://pdmr.cancer.gov). Briefly, all PDCs were thawed and cultured in Matrigel-coated flasks prepared with a working solution of 1X Ham's F-12 nutrient mix, without supplementation (Invitrogen, Waltham, MA, cat. 11765054), 100 U/mL penicillin-streptomycin (Invitrogen, cat. 15140122), and 2.5% Matrigel (Corning Inc., Corning, NY, cat. 354248) for the first three passages. All PDCs were cultured in complete DMEM/F-12 media containing advanced DMEM/F-12 (Invitrogen, cat. 12634028), 4.9% defined fetal bovine serum, heat inactivated (HyClone Laboratories Inc., Logan, UT, cat. SH30070.03HI), 389 ng/mL hydrocortisone (Sigma-Aldrich, cat. H4001), 9.7 ng/mL human EGF recombinant protein (Invitrogen, cat. PHG0313), 23.4 microg/mL adenine (Sigma-Aldrich, cat. A2786), 97.3 U/mL penicillin-streptomycin (Invitrogen, cat. 15140122), 1.9 mM L-glutamine (Invitrogen, cat. 25030081), and 9.7 microM Y-27632 dihydrochloride (Tocris Bioscience, Bristol, United Kingdom, cat. 1254). The PDCs were cultured in complete DMEM/F12 media without 10 microM Y-27632 dihydrochloride for at least two passages prior to the screen. The established cell lines NCI-H1341 and […] were cultured in DMEM/F-12, HEPES (Invitrogen, cat. 11330032), 5% defined fetal bovine serum (HyClone Laboratories Inc., cat. SH30070.03), ITS premix universal culture supplement [insulin (5 microg/mL), transferrin (5 microg/mL), and selenious acid (5 ng/mL)] […]

[1] = curve of first compound, second compound 0.1 µM
[2] = curve of first compound, second compound 0.316 µM
[3] = curve of first compound, second compound 1 µM
[4] = curve of first compound, second compound 3.16 µM
[5] = curve of first compound, second compound 10 µM
[6] = second compound 0.1 µM, first compound 0.0316 µM
[7] = second compound 0.1 µM, first compound 0.1 µM
[8] = second compound 0.1 µM, first compound 0.316 µM
[9] = second compound 0.1 µM, first compound 1 µM
[10] = second compound 0.1 µM, first compound 3.16 µM
[11] = second compound 0.1 µM, first compound 10 µM
[12] = second compound 0.316 µM, first compound 0.0316 µM
[13] = second compound 0.316 µM, first compound 0.1 µM
[14] = second compound 0.316 µM, first compound 0.316 µM
[15] = second compound 0.316 µM, first compound 1 µM
[16] = second compound 0.316 µM, first compound 3.16 µM
[17] = second compound 0.316 µM, first compound 10 µM
[18] = second compound 1 µM, first compound 0.0316 µM
[19] = second compound 1 µM, first compound 0.1 µM
[20] = second compound 1 µM, first compound 0.316 µM
[21] = second compound 1 µM, first compound 1 µM
[22] = second compound 1 µM, first compound 3.16 µM
[23] = second compound 1 µM, first compound 10 µM
[24] = second compound 3.16 µM, first compound 0.0316 µM
[25] = second compound 3.16 µM, first compound 0.1 µM
[26] = second compound 3.16 µM, first compound 0.316 µM
[27] = second compound 3.16 µM, first compound 1 µM
[28] = second compound 3.16 µM, first compound 3.16 µM
[29] = second compound 3.16 µM, first compound 10 µM
[30] = second compound 10 µM, first compound 0.0316 µM
[31] = second compound 10 µM, first compound 0.1 µM
[32] = second compound 10 µM, first compound 0.316 µM
[33] = second compound 10 µM, first compound 1 µM
[34] = second compound 10 µM, first compound 3.16 µM
[35] = second compound 10 µM, first compound 10 µM
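Further: luminescence taken as a proxy for viable cell amount.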
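Wherever viability, T/C is given: percent of DMSO vehicle control where 100% means growth equal to vehicle.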

- pIC50 (curve of compound): 5.25 and 5.05 and 5.27
Structure (SMILES): NS(=O)(=O)OCC1CC(n2ccc3c(NC4CCc5ccccc54)ncnc32)CC1O (centres undefined)
- viability, T/C (compound 0.0316 µM): 94.3% and 100% and 101%
- viability, T/C (compound 0.1 µM): 105% and 96.8% and 99.1%
- viability, T/C (compound 0.316 µM): 107% and 102% and 97.8%
- viability, T/C (compound 1 µM): 89.2% and 103% and 86.7%
- viability, T/C (compound 3.16 µM): 65.2% and 76.8% and 62.9%
- viability, T/C (compound 10 µM): 35.8% and 47% and 34.9%

- pIC50 [1]: 6.94
- pIC50 [2]: 6.94
- pIC50 [3]: 7.00
- pIC50 [4]: 7.60
- pIC50 [5]: > 8.02
Structure (SMILES): O=C(C=Cn1cnc(-c2cc(C(F)(F)F)cc(C(F)(F)F)c2)n1)NNc1cnccn1 + Cc1cncc(-c2nc(NCCc3c[nH]c4ccccc34)c3ncn(C(C)C)c3n2)c1
- viability, T/C (second compound 0.1 µM, first compound 0.00949 µM): 87.9%
- viability, T/C (second compound 0.1 µM, first compound 0.03 µM): 70.4%
- viability, T/C (second compound 0.1 µM, first compound 0.0949 µM): 49.8%
- viability, T/C (second compound 0.1 µM, first compound 0.3 µM): 40%
- viability, T/C (second compound 0.1 µM, first compound 0.949 µM): 37.4%
- viability, T/C (second compound 0.1 µM, first compound 3 µM): 27.9%
- viability, T/C (second compound 0.316 µM, first compound 0.00949 µM): 82.4%
- viability, T/C (second compound 0.316 µM, first compound 0.03 µM): 69.7%
- viability, T/C (second compound 0.316 µM, first compound 0.0949 µM): 51.8%
- viability, T/C (second compound 0.316 µM, first compound 0.3 µM): 36.2%
- viability, T/C (second compound 0.316 µM, first compound 0.949 µM): 37.4%
- viability, T/C (second compound 0.316 µM, first compound 3 µM): 25%
- viability, T/C (second compound 1 µM, first compound 0.00949 µM): 82.6%
- viability, T/C (second compound 1 µM, first compound 0.03 µM): 70.9%
- viability, T/C (second compound 1 µM, first compound 0.0949 µM): 48.8%
- viability, T/C (second compound 1 µM, first compound 0.3 µM): 38.2%
- viability, T/C (second compound 1 µM, first compound 0.949 µM): 29.2%
- viability, T/C (second compound 1 µM, first compound 3 µM): 27.9%
- viability, T/C (second compound 3.16 µM, first compound 0.00949 µM): 62.3%
- viability, T/C (second compound 3.16 µM, first compound 0.03 µM): 47.4%
- viability, T/C (second compound 3.16 µM, first compound 0.0949 µM): 34.3%
- viability, T/C (second compound 3.16 µM, first compound 0.3 µM): 26%
- viability, T/C (second compound 3.16 µM, first compound 0.949 µM): 26.3%
- viability, T/C (second compound 3.16 µM, first compound 3 µM): 24.9%
- viability, T/C (second compound 10 µM, first compound 0.00949 µM): 1.57%
- viability, T/C (second compound 10 µM, first compound 0.03 µM): 1.26%
- viability, T/C (second compound 10 µM, first compound 0.0949 µM): 1.76%
- viability, T/C (second compound 10 µM, first compound 0.3 µM): 2.84%
- viability, T/C (second compound 10 µM, first compound 0.949 µM): 2.94%
- viability, T/C (second compound 10 µM, first compound 3 µM): 4.72%

- pIC50 (curve of compound): < 6.00
Structure (SMILES): Nc1ncn(C2CC(O)C(CO)O2)c(=O)n1 (centres undefined)
- viability, T/C (compound 0.00316 µM): 101% (2×) and 107%
- viability, T/C (compound 0.01 µM): 102% (2×) and 103%
- viability, T/C (compound 0.0316 µM): 107% and 91.4% and 87.8%
- viability, T/C (compound 0.1 µM): 88.2% and 98.2% and 82.9%
- viability, T/C (compound 0.316 µM): 99.3% and 80.2% and 89.1%
- viability, T/C (compound 1 µM): 80% and 86.7% and 87.6%

- pIC50 [1]: 5.41
- pIC50 [2]: 5.56
- pIC50 [3]: 5.66
- pIC50 [4]: 6.14
- pIC50 [5]: > 7.50
Structure (SMILES): NS(=O)(=O)OCC1CC(n2ccc3c(NC4CCc5ccccc54)ncnc32)CC1O (centres undefined) + Cc1cncc(-c2nc(NCCc3c[nH]c4ccccc34)c3ncn(C(C)C)c3n2)c1
- viability, T/C [6]: 105%
- viability, T/C [7]: 113%
- viability, T/C [8]: 66.7%
- viability, T/C [9]: 101%
- viability, T/C [10]: 44%
- viability, T/C [11]: 30.7%
- viability, T/C [12]: 113%
- viability, T/C [13]: 97.3%
- viability, T/C [14]: 53.3%
- viability, T/C [15]: 97.2%
- viability, T/C [16]: 39.8%
- viability, T/C [17]: 28.9%
- viability, T/C [18]: 111%
- viability, T/C [19]: 79.7%
- viability, T/C [20]: 54%
- viability, T/C [21]: 106%
- viability, T/C [22]: 32.6%
- viability, T/C [23]: 26.2%
- viability, T/C [24]: 70.9%
- viability, T/C [25]: 70.1%
- viability, T/C [26]: 50%
- viability, T/C [27]: 55.4%
- viability, T/C [28]: 27.2%
- viability, T/C [29]: 16.9%
- viability, T/C [30]: 2.35%
- viability, T/C [31]: 3.18%
- viability, T/C [32]: 6.94%
- viability, T/C [33]: 2.85%
- viability, T/C [34]: 6.79%
- viability, T/C [35]: 5.98%

- pIC50 [1]: 6.21
- pIC50 [2]: 6.18
- pIC50 [3]: 6.28
- pIC50 [4]: 6.37
- pIC50 [5]: > 7.50
Structure (SMILES): O=C(C=Cc1cccc(S(=O)(=O)Nc2ccccc2)c1)NO + Cc1cncc(-c2nc(NCCc3c[nH]c4ccccc34)c3ncn(C(C)C)c3n2)c1
- viability, T/C [6]: 118%
- viability, T/C [7]: 115%
- viability, T/C [8]: 75.8%
- viability, T/C [9]: 30.8%
- viability, T/C [10]: 10.1%
- viability, T/C [11]: 1.27%
- viability, T/C [12]: 111%
- viability, T/C [13]: 104%
- viability, T/C [14]: 81.1%
- viability, T/C [15]: 32%
- viability, T/C [16]: 7.58%
- viability, T/C [17]: 1.48%
- viability, T/C [18]: 106%
- viability, T/C [19]: 108%
- viability, T/C [20]: 69.3%
- viability, T/C [21]: 23.6%
- viability, T/C [22]: 6.31%
- viability, T/C [23]: 0.83%
- viability, T/C [24]: 59.9%
- viability, T/C [25]: 71.5%
- viability, T/C [26]: 57.8%
- viability, T/C [27]: 25%
- viability, T/C [28]: 6.63%
- viability, T/C [29]: 1.68%
- viability, T/C [30]: 1.93%
- viability, T/C [31]: 2.88%
- viability, T/C [32]: 4.14%
- viability, T/C [33]: 8.01%
- viability, T/C [34]: 9.58%
- viability, T/C [35]: 1.55%
